# Laboratory results: US9902733B2, “Furopyridines as inhibitors of protein kinases” (MASARYKOVA UNIVERZITA, priority 2014, dated 2018)
# Like-named read-outs stand apart in the source and are kept apart here.
# Tests used:
# CLK2 (h) = biological target: T1, CLK2 (h) (Homo sapiens, UniProt P49760); assay: CLK2 KinaseProfiler radiometric protein kinase assay; assay type: biochemical
# T1 construct: purchased Merck Millipore (KinaseProfiler service)
# Method: (§1) In vitro essays were performed by the company Merck Millipore in their KinaseProfiler radiometric protein kinase assay as paid commercial service. The compounds IC50 values for inhibition of individual protein kinases were determined. Dose-response curves were plotted from inhibition data generated, each in duplicate, from 10 point serial dilutions of inhibitory compounds. Concentration of compound was plotted against % kinase activity. To generate IC50 values, the dose-response curves were fitted to a standard sigmoidal curve and IC50 values were derived by standard nonlinear regression analysis.
# (§2) All tested compounds were prepared in 100% DMSO to final assay concentrations either 0.5 mM (for the concentration row A, see below) or 0.05 mM (for the concentration row B). This working stock of the compound was added to the assay well as the first component in the reaction, followed by the remaining components as detailed below. The stock solution was added to the individual assay wells in such amounts that the concentrations of the compound were either in the row A (0.001 μM, 0.003 μM, 0.01 μM, 0.03 μM, 0.1 μM, 0.3 μM, 1.0 μM, 3.0 μM, and 10.0 μM) or in the row B (0.0001 μM, 0.0003 μM, 0.001 μM, 0.003 μM, 0.01 μM, 0.03 μM, 0.1 μM, 0.3 μM, and 1.0 μM). There was no pre-incubation step between the compound and the kinase prior to initiation of the reaction.
# (§3) The positive control wells contained all components of the reaction, except the compound of interest; however, DMSO (at a final concentration of 2%) was included in these wells to control for solvent effects. The blank wells contained all components of the reaction, with staurosporine as a reference inhibitor replacing the compound of interest. This abolished kinase activity and established the base-line (0% kinase activity remaining).
# CLK2 (h) was diluted in the buffer (20 mM MOPS (3-(N-morpholino)propanesulfonic acid), 1 mM EDTA (ethylendiaminotetraacetic acid), 0.01% Brij-35 (detergent), 5% Glycerol, 0.1% β-mercaptoethanol, 1 mg/mL BSAs) to the concentration of 1.01 mg/mL prior to addition to the reaction mix.
# (§4) The above stock solution of CLK2(h) was added to a mixture containing 8 mM MOPS pH 7.0, 0.2 mM EDTA, and 20 μM […](p) EDEEE in such amount that the resulting concentration of CLK2(h) was 2.1 nM. This mixture was added to the stock solution of the tested compound. The reaction was initiated by the addition of the MgATP mix in such amount that the resulting concentration of Mg acetate in the reaction mixture was 10 mM and [γ-^33P-ATP] (specific activity approx. 500 cpm/pmol) was 15 μM. After incubation for 40 minutes at room temperature, the reaction was stopped by the addition of 3% phosphoric acid solution. 10 μL of the reaction was then spotted onto a P30 filtermat and washed three times for 5 minutes in 75 mM phosphoric acid and once in methanol prior to drying and scintillation counting.
# CLK4 (h) = biological target: T2, CLK4 (h) (Homo sapiens, UniProt Q9HAZ1); assay: CLK4 KinaseProfiler radiometric protein kinase assay; assay type: biochemical; conditions: 15 μM ATP, 40 minutes at room temperature
# T2 construct: purchased Merck Millipore (KinaseProfiler service)
# Method: as §1, §2, §3
# CLK4 (h) was diluted in the buffer (20 mM MOPS, 1 mM EDTA, 0.01% Brij-35, 5% Glycerol, 0.1% β-mercaptoethanol, 1 mg/mL BSAs) to the concentration of 1.01 mg/mL prior to addition to the reaction mix.
# as §4, with “CLK4(h)” for “CLK2(h)”, “200” for “20”, “140.8” for “2.1”
# T1 sequence (P49760 whole entry): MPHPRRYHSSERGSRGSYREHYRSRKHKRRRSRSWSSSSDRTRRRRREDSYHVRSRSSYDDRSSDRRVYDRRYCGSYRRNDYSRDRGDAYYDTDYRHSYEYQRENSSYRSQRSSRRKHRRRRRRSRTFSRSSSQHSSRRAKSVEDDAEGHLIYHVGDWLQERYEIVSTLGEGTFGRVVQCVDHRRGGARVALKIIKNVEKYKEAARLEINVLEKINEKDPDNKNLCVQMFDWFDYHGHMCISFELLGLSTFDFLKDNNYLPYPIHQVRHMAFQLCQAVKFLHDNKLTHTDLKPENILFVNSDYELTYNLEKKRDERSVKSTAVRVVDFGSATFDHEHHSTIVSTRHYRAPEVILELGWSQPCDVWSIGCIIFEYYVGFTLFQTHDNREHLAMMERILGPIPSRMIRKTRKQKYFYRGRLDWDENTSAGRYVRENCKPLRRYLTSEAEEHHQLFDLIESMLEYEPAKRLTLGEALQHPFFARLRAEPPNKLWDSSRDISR
# T2 sequence (Q9HAZ1 whole entry): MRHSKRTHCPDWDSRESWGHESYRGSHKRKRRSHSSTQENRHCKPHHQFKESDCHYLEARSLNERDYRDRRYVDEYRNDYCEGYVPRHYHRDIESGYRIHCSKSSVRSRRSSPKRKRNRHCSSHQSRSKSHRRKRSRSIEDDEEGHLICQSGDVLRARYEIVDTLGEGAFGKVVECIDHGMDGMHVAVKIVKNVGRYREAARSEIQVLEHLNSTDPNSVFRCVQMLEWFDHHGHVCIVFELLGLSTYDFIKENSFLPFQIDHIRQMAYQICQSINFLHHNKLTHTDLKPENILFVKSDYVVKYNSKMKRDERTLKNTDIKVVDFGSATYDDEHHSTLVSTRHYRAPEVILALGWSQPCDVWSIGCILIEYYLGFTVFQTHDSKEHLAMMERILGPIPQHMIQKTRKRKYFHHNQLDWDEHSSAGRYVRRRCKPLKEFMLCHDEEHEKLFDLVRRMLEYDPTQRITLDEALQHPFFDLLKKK
"IC50 (CLK2 (h); radiometric, 15 μM ATP, 40 minutes at room temperature, read-out: CLK2 IC50)",IC50 (CLK4 (h)),IC50 (CLK2 (h)),Structure (SMILES)
< 1000 nM,< 100 nM,,Cn1cc(-c2ccc3occ(-c4ccccc4)c3n2)cn1 [Preparative Example 6A]
,< 100 nM,< 100 nM,c1ccc(-c2coc3ccc(-c4cn[nH]c4)nc23)cc1 [Preparative Example 9]
